Earlier results, collected in article PMC9147171, “Pharmacokinetic/Pharmacodynamic Evaluation of a New Purine-2,6-Dione Derivative in Rodents with Experimental Autoimmune Diseases” (Pharmaceutics, 2022).
Where two headings read alike, the source gives them in different places.

Experiments:
PDE7A = details: read-out: IC50 (µM) Against PDE Isoform PDE7A; cited from earlier work
hrPDE1B = target: T1, hrPDE1B (Homo sapiens, UniProt Q01064); design: method as in PMID 31899535; details: PDE1B; read-out: IC50 (µM) Against PDE Isoform (CV%) PDE1B; cited from earlier work
T1 construct: purchased SignalChem, Richmond, Canada
T1 sequence (Q01064 whole entry, canonical isoform): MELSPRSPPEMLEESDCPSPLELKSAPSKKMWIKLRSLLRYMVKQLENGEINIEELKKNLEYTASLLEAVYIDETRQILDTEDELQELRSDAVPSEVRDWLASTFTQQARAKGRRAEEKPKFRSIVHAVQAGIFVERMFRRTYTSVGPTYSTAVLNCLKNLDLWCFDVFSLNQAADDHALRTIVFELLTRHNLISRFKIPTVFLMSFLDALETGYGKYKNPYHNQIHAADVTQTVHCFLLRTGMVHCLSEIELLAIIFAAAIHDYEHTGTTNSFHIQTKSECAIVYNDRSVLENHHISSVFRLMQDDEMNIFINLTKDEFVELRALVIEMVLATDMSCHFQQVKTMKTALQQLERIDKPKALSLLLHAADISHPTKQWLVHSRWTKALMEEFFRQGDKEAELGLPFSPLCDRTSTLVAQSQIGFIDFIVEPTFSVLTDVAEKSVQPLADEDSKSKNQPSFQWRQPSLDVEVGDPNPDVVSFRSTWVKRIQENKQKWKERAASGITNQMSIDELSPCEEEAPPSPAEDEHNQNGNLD

PDE4B = details: read-out: IC50 (µM) Against PDE Isoform PDE4B; cited from earlier work
[1] = mice; from the authors' previous investigations; cited from earlier work
[2] = rats; from the authors' previous investigations; cited from earlier work
hrPDE3A = target: T2, hrPDE3A (Homo sapiens, UniProt Q14432); design: method as in PMID 31899535; details: PDE3A; read-out: IC50 (µM) Against PDE Isoform (CV%) PDE3A; cited from earlier work
T2 construct: purchased SignalChem, Richmond, Canada
T2 sequence (Q14432 whole entry, canonical isoform): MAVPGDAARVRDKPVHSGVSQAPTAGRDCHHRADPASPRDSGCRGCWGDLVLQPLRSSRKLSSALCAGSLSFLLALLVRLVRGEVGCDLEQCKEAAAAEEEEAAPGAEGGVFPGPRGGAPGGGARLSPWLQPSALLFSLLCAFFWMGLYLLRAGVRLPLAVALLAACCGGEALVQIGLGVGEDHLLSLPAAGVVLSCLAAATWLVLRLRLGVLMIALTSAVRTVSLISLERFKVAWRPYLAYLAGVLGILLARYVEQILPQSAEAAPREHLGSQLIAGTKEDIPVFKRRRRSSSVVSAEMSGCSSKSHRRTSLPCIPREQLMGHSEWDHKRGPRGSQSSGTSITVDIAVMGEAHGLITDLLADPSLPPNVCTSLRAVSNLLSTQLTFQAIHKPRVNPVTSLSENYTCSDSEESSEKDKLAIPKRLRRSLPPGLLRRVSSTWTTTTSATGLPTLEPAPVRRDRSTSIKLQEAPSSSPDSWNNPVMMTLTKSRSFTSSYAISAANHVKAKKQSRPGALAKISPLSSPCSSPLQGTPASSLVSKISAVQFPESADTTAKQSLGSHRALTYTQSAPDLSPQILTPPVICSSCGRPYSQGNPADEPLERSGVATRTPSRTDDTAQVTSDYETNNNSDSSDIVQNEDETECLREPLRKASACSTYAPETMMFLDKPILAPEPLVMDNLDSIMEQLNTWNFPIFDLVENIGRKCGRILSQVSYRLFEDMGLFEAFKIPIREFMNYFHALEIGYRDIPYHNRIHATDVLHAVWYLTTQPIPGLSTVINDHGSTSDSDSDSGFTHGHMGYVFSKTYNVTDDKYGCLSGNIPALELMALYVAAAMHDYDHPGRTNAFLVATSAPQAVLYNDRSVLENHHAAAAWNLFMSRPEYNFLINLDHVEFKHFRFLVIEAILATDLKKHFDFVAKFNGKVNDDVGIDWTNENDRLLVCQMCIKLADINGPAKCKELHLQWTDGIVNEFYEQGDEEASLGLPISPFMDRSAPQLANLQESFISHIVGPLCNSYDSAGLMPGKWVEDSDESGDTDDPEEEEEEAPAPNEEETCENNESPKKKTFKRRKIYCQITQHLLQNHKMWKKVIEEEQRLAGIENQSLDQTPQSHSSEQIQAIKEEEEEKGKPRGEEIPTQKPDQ

SMILES	IC50 (PDE7A)	IC50 (hrPDE1B)	IC50 (PDE4B)	half-life [1]	half-life [2]	IC50 (hrPDE3A)
Cc1ccc([N+](=O)[O-])cc1S(=O)(=O)N(C)C [BRL—50481]	2.1 µM	–	–	–	–	–
Cn1c(=O)c2c(nc(NCCc3ccccc3)n2CCCC(=O)NN=Cc2ccccc2O)n(C)c1=O [GRMS-55]	7.3 µM	2.5 µM	26.9 µM	around 30 min	around 30 min	13.4 µM
